Laboratory results: ChEMBL document CHEMBL1201862, “PubChem BioAssay data set” (2004)
Values joined by “and” are separate entries in the source; they are usually repeats but may differ in a detail not shown here. Equal values may be shown once.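 Protocol summary: plate cells (96-well), add compound at 5 concentrations, incubate 48 h, interpolate endpoints linearly. GI50 = concentration required for 50% inhibition of growth.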 Active and inactive are the calls of the source. Cut-off read from the data, not from the text of the source: active = GI50 up to about 1.1 µM and inactive = higher.

Tests used:
Test in all cases: DTP human tumour cell line panel, 48 h
786-0 = tested on: 786-0
A498 = tested on: A498
A549 = tested on: A549
ACHN = tested on: ACHN
CAKI-1 = tested on: CAKI-1
CCRF-CEM = tested on: CCRF-CEM
COLO 205 = tested on: COLO 205
DU-145 = tested on: DU-145
EKVX = tested on: EKVX
HCC 2998 = tested on: HCC 2998
HCT-116 = tested on: HCT-116
HCT-15 = tested on: HCT-15
HL-60 = tested on: HL-60
HOP-62 = tested on: HOP-62
HT-29 = tested on: HT-29
Hs-578T = tested on: Hs-578T
IGROV-1 = tested on: IGROV-1
K562 = tested on: K562
KM12 = tested on: KM12
LOX IMVI = tested on: LOX IMVI
M14 = tested on: M14
MCF7 = tested on: MCF7
MDA-MB-231 = tested on: MDA-MB-231
MDA-MB-435 = tested on: MDA-MB-435
MOLT-4 = tested on: MOLT-4
Malme-3M = tested on: Malme-3M
NCI-H226 = tested on: NCI-H226
NCI-H23 = tested on: NCI-H23
NCI-H460 = tested on: NCI-H460
NCI-H522 = tested on: NCI-H522
NCI/ADR-RES = tested on: NCI/ADR-RES
OVCAR-3 = tested on: OVCAR-3
OVCAR-4 = tested on: OVCAR-4
OVCAR-5 = tested on: OVCAR-5
OVCAR-8 = tested on: OVCAR-8
PC-3 = tested on: PC-3
RPMI-8226 = tested on: RPMI-8226
RXF 393 = tested on: RXF 393
SF-268 = tested on: SF-268
SF-295 = tested on: SF-295
SF-539 = tested on: SF-539
SK-MEL-28 = tested on: SK-MEL-28
SK-MEL-2 = tested on: SK-MEL-2
SK-MEL-5 = tested on: SK-MEL-5
SK-OV-3 = tested on: SK-OV-3
SN12C = tested on: SN12C
SNB-19 = tested on: SNB-19
SR = tested on: SR
SW-620 = tested on: SW-620
TK-10 = tested on: TK-10
U-251 = tested on: U-251
UACC-257 = tested on: UACC-257
UACC-62 = tested on: UACC-62
UO-31 = tested on: UO-31
MDA-N = tested on: MDA-N
SNB-75 = tested on: SNB-75
T47D = tested on: T47D
HOP-92 = tested on: HOP-92

N#Cc1ccc(C2NN=CC23C(=O)c2ccccc2OC3c2ccccc2)cc1 (configuration not stated)
GI50 (786-0): 32.1 µM (inactive)
GI50 (A498): 26.9 µM (inactive)
GI50 (A549): 29.4 µM (inactive)
GI50 (ACHN): 34.7 µM (inactive)
GI50 (CAKI-1): 34 µM (inactive)
GI50 (CCRF-CEM): 32.6 µM (inactive)
GI50 (COLO 205): 18.8 µM (inactive)
GI50 (DU-145): 47.1 µM (inactive)
GI50 (EKVX): 21.1 µM (inactive)
GI50 (HCC 2998): 35.7 µM (inactive)
GI50 (HCT-116): 20.5 µM (inactive)
GI50 (HCT-15): 25.4 µM
GI50 (HL-60): 59.7 µM (inactive)
GI50 (HOP-62): 54.6 µM (inactive)
GI50 (HT-29): 31.7 µM (inactive)
GI50 (Hs-578T): 30.5 µM (inactive)
GI50 (IGROV-1): 50.6 µM (inactive)
GI50 (K562): 33.5 µM (inactive)
GI50 (KM12): 36.4 µM (inactive)
GI50 (LOX IMVI): 30.9 µM (inactive)
GI50 (M14): 97.1 µM (inactive)
GI50 (MCF7): 34.2 µM (inactive)
GI50 (MDA-MB-231): 57.4 µM (inactive)
GI50 (MDA-MB-435): 30.8 µM (inactive)
GI50 (MOLT-4): 22.3 µM (inactive)
GI50 (Malme-3M): 53.7 µM (inactive)
GI50 (NCI-H226): 39.4 µM (inactive)
GI50 (NCI-H23): 30.1 µM (inactive)
GI50 (NCI-H460): 27.4 µM (inactive)
GI50 (NCI-H522): 24.2 µM (inactive)
GI50 (NCI/ADR-RES): 31.5 µM (inactive)
GI50 (OVCAR-3): 30.4 µM (inactive)
GI50 (OVCAR-4): 33.8 µM (inactive)
GI50 (OVCAR-5): 45.7 µM (inactive)
GI50 (OVCAR-8): 42.4 µM (inactive)
GI50 (PC-3): 29.7 µM (inactive)
GI50 (RPMI-8226): 20.8 µM (inactive)
GI50 (RXF 393): 15 µM (inactive)
GI50 (SF-268): 52.4 µM (inactive)
GI50 (SF-295): 34.4 µM (inactive)
GI50 (SF-539): 42.2 µM (inactive)
GI50 (SK-MEL-28): 51.1 µM (inactive)
GI50 (SK-MEL-2): 29.5 µM (inactive)
GI50 (SK-MEL-5): 23.7 µM (inactive)
GI50 (SK-OV-3): 31.8 µM (inactive)
GI50 (SN12C): 41.1 µM (inactive)
GI50 (SNB-19): 27.6 µM (inactive)
GI50 (SR): 24 µM (inactive)
GI50 (SW-620): 45.2 µM (inactive)
GI50 (TK-10): 25.4 µM (inactive)
GI50 (U-251): 23.8 µM (inactive)
GI50 (UACC-257): 28 µM (inactive)
GI50 (UACC-62): 26.7 µM (inactive)
GI50 (UO-31): 19.2 µM (inactive)

COc1cc(CC(C)N[C@@H](C)c2ccccc2)cc(OC)c1 (some centres not stated)
GI50 (CAKI-1): > 100 µM (inactive)
GI50 (Hs-578T): 72.1 µM (inactive)
GI50 (KM12): > 100 µM (inactive)
GI50 (NCI-H522): > 100 µM (inactive)
GI50 (RXF 393): > 100 µM (inactive)
GI50 (SF-539): > 100 µM (inactive)
GI50 (SK-MEL-2): > 100 µM (inactive)

CC1CN=C(N(Cc2ccc(F)cc2)C(=O)Nc2ccc(Cl)cc2)S1 (configuration not stated)
GI50 (786-0): 20.5 µM (inactive)
GI50 (A498): 18.9 µM (inactive)
GI50 (A549): 21.4 µM (inactive)
GI50 (ACHN): 6.68 µM (inactive)
GI50 (CAKI-1): 5.32 µM (inactive)
GI50 (CCRF-CEM): 28 µM (inactive)
GI50 (COLO 205): 30.3 µM (inactive)
GI50 (DU-145): 61.9 µM (inactive)
GI50 (EKVX): 16.2 µM (inactive)
GI50 (HCC 2998): 23.2 µM (inactive)
GI50 (HCT-116): 22.3 µM (inactive)
GI50 (HCT-15): 6.22 µM
GI50 (HL-60): 17.5 µM (inactive)
GI50 (HOP-62): 93.3 µM (inactive)
GI50 (HT-29): 17.8 µM (inactive)
GI50 (Hs-578T): 51.3 µM (inactive)
GI50 (IGROV-1): 18.9 µM (inactive)
GI50 (K562): 9.23 µM (inactive)
GI50 (KM12): 14 µM (inactive)
GI50 (LOX IMVI): 16.1 µM (inactive)
GI50 (M14): 0.51 µM (active)
GI50 (MCF7): 28.8 µM (inactive)
GI50 (MDA-MB-231): 32.3 µM (inactive)
GI50 (MDA-N): 11.7 µM (inactive)
GI50 (MOLT-4): 27.7 µM (inactive)
GI50 (Malme-3M): 34.8 µM (inactive)
GI50 (NCI-H23): 26.9 µM (inactive)
GI50 (NCI-H460): 18.7 µM (inactive)
GI50 (NCI/ADR-RES): 12.5 µM (inactive)
GI50 (OVCAR-3): 20.2 µM (inactive)
GI50 (OVCAR-4): 13.3 µM (inactive)
GI50 (OVCAR-5): > 100 µM (inactive)
GI50 (OVCAR-8): 30.1 µM (inactive)
GI50 (PC-3): 23 µM (inactive)
GI50 (RPMI-8226): 43.4 µM (inactive)
GI50 (SF-268): 21.4 µM (inactive)
GI50 (SF-295): 27.7 µM (inactive)
GI50 (SF-539): 30.5 µM (inactive)
GI50 (SK-MEL-28): 16.3 µM (inactive)
GI50 (SK-MEL-2): 15.1 µM (inactive)
GI50 (SK-MEL-5): 13.7 µM (inactive)
GI50 (SK-OV-3): > 100 µM (inactive)
GI50 (SN12C): 28.2 µM (inactive)
GI50 (SNB-19): 95.1 µM (inactive)
GI50 (SNB-75): 18.2 µM (inactive)
GI50 (SR): 26.5 µM (inactive)
GI50 (SW-620): 22.5 µM (inactive)
GI50 (T47D): 13.3 µM (inactive)
GI50 (TK-10): 21.8 µM (inactive)
GI50 (U-251): 32.4 µM (inactive)
GI50 (UACC-257): 45.9 µM (inactive)
GI50 (UO-31): 35.2 µM (inactive)

CCCCNC(=O)Cn1c2ccc(Br)cc2c2nc3ccccc3nc21
GI50 (786-0): > 100 µM (inactive)
GI50 (A498): > 100 µM (inactive)
GI50 (A549): > 100 µM (inactive)
GI50 (ACHN): > 100 µM (inactive)
GI50 (CAKI-1): 57.3 µM (inactive)
GI50 (CCRF-CEM): > 100 µM (inactive)
GI50 (COLO 205): > 100 µM (inactive)
GI50 (DU-145): > 100 µM (inactive)
GI50 (HCT-116): 64.3 µM (inactive)
GI50 (HOP-62): 58.1 µM (inactive)
GI50 (HOP-92): > 100 µM (inactive)
GI50 (HT-29): > 100 µM (inactive)
GI50 (Hs-578T): > 100 µM (inactive)
GI50 (IGROV-1): > 100 µM (inactive)
GI50 (K562): > 100 µM (inactive)
GI50 (KM12): > 100 µM (inactive)
GI50 (LOX IMVI): > 100 µM (inactive)
GI50 (M14): > 100 µM (inactive)
GI50 (MDA-MB-231): > 100 µM (inactive)
GI50 (MDA-MB-435): > 100 µM (inactive)
GI50 (MDA-N): > 100 µM (inactive)
GI50 (MOLT-4): > 100 µM (inactive)
GI50 (NCI-H226): 12.3 µM (inactive)
GI50 (NCI-H23): > 100 µM (inactive)
GI50 (NCI/ADR-RES): 42.2 µM (inactive)
GI50 (OVCAR-3): > 100 µM (inactive)
GI50 (OVCAR-5): > 100 µM (inactive)
GI50 (OVCAR-8): 33.3 µM (inactive)
GI50 (PC-3): > 100 µM (inactive)
GI50 (RPMI-8226): > 100 µM (inactive)
GI50 (RXF 393): > 100 µM (inactive)
GI50 (SF-268): 97.1 µM (inactive)
GI50 (SF-295): > 100 µM (inactive)
GI50 (SK-MEL-28): > 100 µM (inactive)
GI50 (SK-MEL-2): > 100 µM (inactive)
GI50 (SK-MEL-5): > 100 µM (inactive)
GI50 (SN12C): 84.3 µM (inactive)
GI50 (SNB-19): > 100 µM (inactive)
GI50 (SNB-75): 51.9 µM (inactive)
GI50 (SR): 0.589 µM (active)
GI50 (SW-620): > 100 µM (inactive)
GI50 (T47D): 93.8 µM (inactive)
GI50 (TK-10): > 100 µM (inactive)
GI50 (U-251): > 100 µM (inactive)
GI50 (UACC-257): > 100 µM (inactive)
GI50 (UACC-62): > 100 µM (inactive)
GI50 (UO-31): > 100 µM (inactive)

CCCOc1c2cc(COC3OC(CO)C(O)C(O)C3O)cc1Cc1cc(COC3OC(CO)C(O)C(O)C3O)cc(c1OCCC)Cc1cc(COC3OC(CO)C(O)C(O)C3O)cc(c1OCCC)Cc1cc(COC3OC(CO)C(O)C(O)C3O)cc(c1OCCC)C2 (configuration not stated)
GI50 (HCC 2998): 45.6 µM (inactive) and 57.8 µM (inactive) and 32 µM (inactive)
GI50 (HOP-92): 48.9 µM (inactive) and 57.1 µM (inactive)
GI50 (Hs-578T): 54 µM (inactive) and 39.1 µM (inactive)
GI50 (MOLT-4): 14.4 µM (inactive)
GI50 (Malme-3M): > 100 µM (inactive)
GI50 (NCI/ADR-RES): > 100 µM (inactive) and 92.7 µM (inactive)
GI50 (RPMI-8226): 50.7 µM (inactive) and 54.3 µM (inactive)
